Results from patent publication US5661165A, “((4-phenyl-1,2,5-thiadiazol-3-yl)oxy)methyl ester thiocyanic acid compounds, compositions containing them and their use as antimicrobial and marine antifouling agents” (The Dow Chemical Company, priority 1996, dated 1997).
Converted amounts (≈) assume the structure as drawn. Where two headings read alike, the source gives them in different places.

Tests used:
[1] = tested on: Klebsiella pneumoniae (Kp); test: MIC against bacteria (nutrient agar); assay type: cell-based, Klebsiella pneumoniae ATCC 8308; settings: 30° C., 48 h, read-out: Minimum Inhibitory Concentration, Kp
Escherichia coli (Ec) = test: MIC against bacteria (nutrient agar); assay type: cell-based, Escherichia coli ATCC 11229; settings: 30° C., 48 h, read-out: Minimum Inhibitory Concentration, Ec
[2] = tested on: Pencillium chrysogenum (Pc); test: MIC against yeast/fungi (malt yeast agar); assay type: cell-based, Pencillium chrysogenum ATCC 9480; settings: 30° C., fungi read after 72 h, read-out: Minimum Inhibitory Concentration, Pc
Description: (§1) The antimicrobial activity of the compounds of the present invention is set forth as the minimum inhibitory concentration (MIC) for the active compounds and is determined for nine (9) bacteria, using nutrient agar, and seven (7) yeast and fungi, using malt yeast agar. This determination is conducted using a one percent solution of the test compound prepared in a mixture of acetone and water.
(§2) Malt yeast agar is prepared by adding 3 g yeast extract and 45 g malt agar per liter of deionized water. The specific agar is dispensed in 30 mL aliquots into 25×200 mm test tubes, capped and autoclaved for 15 minutes at 115° C.
(§3) The test tubes containing the agar are cooled in a water bath until the temperature of the agar is 48° C. Then, an appropriate amount of the one percent solution of the test compound is added (except in the controls where no compound is added) to the respective test tubes so that the final concentrations are 500, 250, 100, 50, 25, 10, 5, 2.5, 1.0 and zero parts per million of the test compound in the agar, thus having a known concentration of test compound dispersed therein. The contents of the test tubes are then transferred to respective petri plates. After drying for 24 hours, the petri plates containing nutrient agar are inoculated with bacteria and those containing malt yeast agar are inoculated with yeast and fungi.
(§4) The inoculation with the yeast and fungi is accomplished as follows. Cultures of yeast and fungi are incubated for seven days on malt yeast agar at 30° C. These cultures are used to prepare suspensions by the following procedure. A suspension of each organism is prepared by adding 10 mL of sterile saline and 10 microliters of octylphenoxy polyethoxy ethanol to the agar slant of yeast or fungi. The sterile saline/octylphenoxy polyethoxy ethanol solution is then agitated with a sterile swab to suspend the microorganism grown on the slant. Each resulting suspension is diluted into sterile saline (1 part suspension to 9 parts sterile saline). Aliquots of these dilutions are placed in individual wells of Steer's Replicator and petri plates inoculated as previously described. The petri plates are incubated at 30° C. and read after 48 hours for yeast and 72 hours for fungi.
(§5) Table I lists the bacteria, yeast and fungi used in the MIC test described above along with their respective American Type Culture Collection (ATCC) identification numbers.

[3] = tested on: Salmonella choleraesuis (Sc); test: MIC against bacteria (nutrient agar); assay type: cell-based, Salmonella choleraesuis ATCC 10708; settings: Salmonella enterica, 30° C., 48 h, read-out: Minimum Inhibitory Concentration, Sc
Trichoderma viride (Tv) = test: MIC against yeast/fungi (malt yeast agar); assay type: cell-based, Trichoderma viride ATCC 8678; settings: 30° C., fungi read after 72 h, read-out: Minimum Inhibitory Concentration, Tv
Description: as §1, §2, §3, §4, §5

Bacillus subtilis (Bs) = test: MIC against bacteria (nutrient agar); assay type: cell-based, Bacillus subtilis ATCC 8473; settings: 30° C., 48 h, read-out: Minimum Inhibitory Concentration, Bs
[4] = tested on: Psuedomonas aeruginosa (Pa); test: MIC against bacteria (nutrient agar); assay type: cell-based, Psuedomonas aeruginosa ATCC 10145; settings: 30° C., 48 h, read-out: Minimum Inhibitory Concentration, Pa
Description: as §1
Nutrient agar is prepared at pH 6.8, representing a neutral medium, and at pH 8.2, representing an alkaline medium. The nutrient agars are prepared by adding 23 g of nutrient agar to one-liter of deionized water. In addition, the alkaline medium is prepared by adjusting a 0.04M solution of N-[tris-(hydroxymethyl)methyl]-glycine buffered deionized water with concentrated sodium hydroxide to a pH of 8.5.
as §3
The inoculation with bacteria is accomplished by using the following procedure. Twenty-four hour-cultures of each of the bacteria are prepared by incubating the respective bacteria in tubes containing nutrient broth for 24 hours at 30° C. in a shaker. Dilutions of each of the 24 hour-cultures are made so that nine separate suspensions (one for each of the nine test bacteria) are made, each containing 10^8 colony forming units (CFU) per mL of suspension of a particular bacteria. Aliquots of 0.3 mL of each of the bacterial suspensions are used to fill the individual wells of Steer's Replicator. For each microbial suspension, 0.3 mL was used to fill three wells (i.e., three wells of 0.3 mL each) so that for the nine different bacteria, 27 wells are filled. The Steer's Replicator is then used to inoculate both the neutral and alkaline pH nutrient agar petri plates.
The inoculated petri plates are incubated at 30° C. for 48 hours and then read to determine if the test compound which is incorporated into the agar prevented growth of the respective bacteria.
as §5

[5] = tested on: Enterobacter aerogenes (Ea); test: MIC against bacteria (nutrient agar); assay type: cell-based, Enterobacter aerogenes ATCC 13048; settings: Klebsiella aerogenes, 30° C., 48 h, read-out: Minimum Inhibitory Concentration, Ea
[6] = tested on: Saccharomyces cerevisiae (Sc); test: MIC against yeast/fungi (malt yeast agar); assay type: cell-based, Saccharomyces cerevisiae ATCC 4105; settings: 30° C., yeast read after 48 h, read-out: Minimum Inhibitory Concentration, Sc
Description: as §1, §2, §3, §4, §5

[7] = tested on: Aureobasidium pullulan (Ap); test: MIC against yeast/fungi (malt yeast agar); assay type: cell-based, Aureobasidium pullulan ATCC 16622; settings: 30° C., yeast 48 h / fungi 72 h, read-out: Minimum Inhibitory Concentration, Ap
Description: as §1, §2, §3, §4, §5

Aperigillus niger (An) = test: MIC against yeast/fungi (malt yeast agar); assay type: cell-based, Aperigillus niger ATCC 16404; settings: 30° C., fungi read after 72 h, read-out: Minimum Inhibitory Concentration, An
Description: as §1, §2, §3, §4, §5

Candida albicans (Ca) = test: MIC against yeast/fungi (malt yeast agar); assay type: cell-based, Candida albicans ATCC 10231; settings: 30° C., yeast read after 48 h, read-out: Minimum Inhibitory Concentration, Ca
Description: as §1, §2, §3, §4, §5

[8] = tested on: Staphylococcus aureus (Sa); test: MIC against bacteria (nutrient agar); assay type: cell-based, Staphylococcus aureus ATCC 6538; settings: 30° C., 48 h, read-out: Minimum Inhibitory Concentration, Sa
Proteus vulgaris (PV) = test: MIC against bacteria (nutrient agar); assay type: cell-based, Proteus vulgaris ATCC 881; settings: 30° C., 48 h, read-out: Minimum Inhibitory Concentration, Pv
[9] = tested on: Psuedomonas aeruginosa (PRD-10); test: MIC against bacteria (nutrient agar); assay type: cell-based, Psuedomonas aeruginosa ATCC 15442; settings: 30° C., 48 h, read-out: Minimum Inhibitory Concentration, PRD
Fusarium oxysporum (Fo) = test: MIC against yeast/fungi (malt yeast agar); assay type: cell-based, Fusarium oxysporum ATCC 48112; settings: 30° C., fungi read after 72 h, read-out: Minimum Inhibitory Concentration, Fo
Description: as §1, §2, §3, §4, §5

Work on N#CSCOc1nsnc1-c1cccc(F)c1 [III, ((4(3Fluorophenyl)-1,2,5-thiadiazol-3-yl)oxy)methyl ester thiocyanic acid] yielded an MIC ([1]; pH 6.8, nutrient agar) of 500 µg/mL (≈ 1870 µM), an MIC ([1]; pH 8.2, nutrient agar) of 500 µg/mL (≈ 1870 µM) and an MIC (Escherichia coli (Ec); pH 6.8, nutrient agar) of 500 µg/mL (≈ 1870 µM). For the same compound, the MIC (Escherichia coli (Ec); pH 8.2, nutrient agar) was > 500 µg/mL, the MIC [2] was < 1 µg/mL and the MIC ([3]; pH 6.8, nutrient agar) was 500 µg/mL (≈ 1870 µM). The MIC ([3]; pH 8.2, nutrient agar) was > 500 µg/mL, the MIC (Trichoderma viride (Tv)) was 500 µg/mL (≈ 1870 µM) and the MIC (Bacillus subtilis (Bs); pH 6.8, nutrient agar) was < 10 µg/mL. For the same compound, the MIC (Bacillus subtilis (Bs); pH 8.2, nutrient agar) was < 10 µg/mL, the MIC ([4]; pH 6.8, nutrient agar) was > 500 µg/mL and the MIC ([4]; pH 8.2, nutrient agar) was > 500 µg/mL. The MIC ([5]; pH 6.8, nutrient agar) was > 500 µg/mL, the MIC ([5]; pH 8.2, nutrient agar) was 500 µg/mL (≈ 1870 µM) and the MIC [6] was < 1 µg/mL. The MIC [7] was < 1 µg/mL, the MIC (Aperigillus niger (An)) was < 1 µg/mL and the MIC (Candida albicans (Ca)) was 5 µg/mL (≈ 18.7 µM). For the same compound, the MIC ([8]; pH 6.8, nutrient agar) was < 10 µg/mL, the MIC ([8]; pH 8.2, nutrient agar) was 25 µg/mL (≈ 93.5 µM) and the MIC (Proteus vulgaris (PV); pH 6.8, nutrient agar) was > 500 µg/mL. For the same compound, the MIC (Proteus vulgaris (PV); pH 8.2, nutrient agar) was 500 µg/mL (≈ 1870 µM), the MIC ([9]; pH 6.8, nutrient agar) was > 500 µg/mL and the MIC ([9]; pH 8.2, nutrient agar) was > 500 µg/mL. It also gave an MIC (Fusarium oxysporum (Fo)) of 100 µg/mL (≈ 374 µM).

In the case of N#CSCOc1nsnc1-c1ccc(F)cc1 [IV, ((4(4-Fluorophenyl)-1,2,5-thiadiazol-3-yl)oxy)methyl ester thiocyanic acid], the MIC ([1]; pH 6.8, nutrient agar) was 500 µg/mL (≈ 1870 µM), the MIC ([1]; pH 8.2, nutrient agar) was 500 µg/mL (≈ 1870 µM) and the MIC (Escherichia coli (Ec); pH 6.8, nutrient agar) was 500 µg/mL (≈ 1870 µM). For the same compound, the MIC (Escherichia coli (Ec); pH 8.2, nutrient agar) was > 500 µg/mL, the MIC [2] was < 1 µg/mL and the MIC ([3]; pH 6.8, nutrient agar) was 500 µg/mL (≈ 1870 µM). For the same compound, the MIC ([3]; pH 8.2, nutrient agar) was > 500 µg/mL, the MIC (Trichoderma viride (Tv)) was 500 µg/mL (≈ 1870 µM) and the MIC (Bacillus subtilis (Bs); pH 6.8, nutrient agar) was < 10 µg/mL. The MIC (Bacillus subtilis (Bs); pH 8.2, nutrient agar) was < 10 µg/mL, the MIC ([4]; pH 6.8, nutrient agar) was > 500 µg/mL and the MIC ([4]; pH 8.2, nutrient agar) was > 500 µg/mL. The MIC ([5]; pH 6.8, nutrient agar) was > 500 µg/mL, the MIC ([5]; pH 8.2, nutrient agar) was 500 µg/mL (≈ 1870 µM) and the MIC [6] was 2.5 µg/mL (≈ 9.35 µM). It also gave an MIC [7] of 2.5 µg/mL (≈ 9.35 µM), an MIC (Aperigillus niger (An)) of 2.5 µg/mL (≈ 9.35 µM) and an MIC (Candida albicans (Ca)) of 5 µg/mL (≈ 18.7 µM). The MIC ([8]; pH 6.8, nutrient agar) was < 10 µg/mL, the MIC ([8]; pH 8.2, nutrient agar) was 25 µg/mL (≈ 93.5 µM) and the MIC (Proteus vulgaris (PV); pH 6.8, nutrient agar) was > 500 µg/mL. The MIC (Proteus vulgaris (PV); pH 8.2, nutrient agar) was 500 µg/mL (≈ 1870 µM), the MIC ([9]; pH 6.8, nutrient agar) was > 500 µg/mL and the MIC ([9]; pH 8.2, nutrient agar) was > 500 µg/mL. For the same compound, the MIC (Fusarium oxysporum (Fo)) was 5 µg/mL (≈ 18.7 µM).
